One compound from paper PMC2241828, “Amyloglucosidase enzymatic reactivity inside lipid vesicles” (Journal of Biological Engineering, 2007) can be followed below.

SMILES strings stand for the structures.

This assay deals with T1, amyloglucosidase (AMG), EC 3.2.1.3 (Aspergillus niger, UniProt P69328).
T1 construct: gene GLAA; commercial enzyme solution (Sigma A-3042), diluted with water
In words: initial rates plus fit of glucose-time curves (HPLC, starch-iodine) to Michaelis-Menten model with product inhibition. The settings on record: free enzyme; soluble starch as substrate; pH 4.5, 55 °C; competitive product inhibition (assumed model); read-out: Ki (mg mL^-1) (converted). The assay is classed as biochemical.

T1 sequence (P69328 25-640): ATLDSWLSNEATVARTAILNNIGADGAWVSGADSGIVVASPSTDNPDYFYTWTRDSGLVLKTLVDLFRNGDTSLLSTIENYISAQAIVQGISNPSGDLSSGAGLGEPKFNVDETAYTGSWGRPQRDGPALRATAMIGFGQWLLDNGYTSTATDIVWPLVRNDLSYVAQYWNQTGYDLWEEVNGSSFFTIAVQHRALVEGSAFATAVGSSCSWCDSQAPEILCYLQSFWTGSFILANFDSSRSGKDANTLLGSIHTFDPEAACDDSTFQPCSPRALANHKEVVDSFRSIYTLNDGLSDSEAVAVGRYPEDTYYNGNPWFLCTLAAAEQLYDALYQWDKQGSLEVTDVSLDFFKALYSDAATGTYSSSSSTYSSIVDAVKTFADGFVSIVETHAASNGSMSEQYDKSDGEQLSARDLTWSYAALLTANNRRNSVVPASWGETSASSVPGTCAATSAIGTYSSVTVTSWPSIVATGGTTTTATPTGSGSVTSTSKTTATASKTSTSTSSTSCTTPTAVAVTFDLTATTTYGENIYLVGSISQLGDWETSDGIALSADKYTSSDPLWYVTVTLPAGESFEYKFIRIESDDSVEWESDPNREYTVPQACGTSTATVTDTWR

By Ki is commonly meant the equilibrium dissociation constant of an inhibitor or competing ligand from its target. With `OC[C@H]1OC(O)[C@H](O)[C@@H](O)[C@@H]1O` (stereo partly shown) [glucose], the Ki is 555 µM.
